Values of other authors, collected in PMC4284021 (The Journal of Pharmacy and Pharmacology, 2014).

Assays:
patients [1] = details: cited from earlier work
CETP = details: cited from earlier work
patients [2] = details: cited from earlier work; remark: listed apart in the source
[3] = tested on: CYP11B1 (steroid 11 β-hydroxylase) and CYP11B2 (aldosterone synthase); details: branched DNA analysis; cited from earlier work
patients [4] = details: cited from earlier work; remark: listed apart in the source

## COc1cc(F)c(C(C)C)cc1-c1ccc(C(F)(F)F)cc1CN1C(=O)O[C@H](c2cc(C(F)(F)F)cc(C(F)(F)F)c2)[C@@H]1C [anacetrapib]
Patients [1]; 12 weeks after cessation
  plasma concentrations after cessation of treatment: significant plasma concentrations
Patients [1]; through 76 weeks
  changes in blood pressure or electrolyte or aldosterone levels: no changes were noted
CETP
  time of peak CETP inhibition after dosing: 4 h

## CCC(CC)CC1(C(=O)Nc2ccccc2SC(=O)C(C)C)CCCCC1 [dalcetrapib]
Patients [2]
  mean systolic blood pressure higher than in the placebo group: approximately 0.6 mmHg

## CCOC(=O)N1c2ccc(C(F)(F)F)cc2[C@@H](N(Cc2cc(C(F)(F)F)cc(C(F)(F)F)c2)C(=O)OC)C[C@H]1CC [torcetrapib]
[3]
  expression of genes regulating CYP11B1 and CYP11B2: induced expression
Patients [4]
  blood pressure and aldosterone levels: increases in blood pressure and aldosterone levels
  mortality and CV events: excess risk
